Key:
[1] = system: hippocampal cell line HT22; test: CellTiter-blue cell viability assay (ctb), hippocampal cell line; assay type: cell-based; settings: HT22 cells, increasing concentrations, FIG. 2B
Protocol: Toxicity was checked by subjecting mouse embryonic fibroblasts (Mef) and the hippocampal cell line HT22 to a CellTiter-blue cell viability assay (ctb).
Mouse embryonic fibroblasts (Mef) (Sigma-Aldrich) and hippocampal HT22 (ThermoScientific) cells were cultured according to the manufacturer's protocols. Ctb assays were performed according to the manufacturer's protocols (Promega).

[2] = system: immune cells isolated from central nervous system (CNS); test: FACS of immune cells from CNS of EAE mice after nasal treatment; assay type: in vivo, mouse; settings: CNS (brain and spinal cord), intranasal treatment of EAE mice
Protocol: (§1) A-B: Effects of incubation with IL-4 and different concentrations of Link4 and Link13 on the differentiation of A: CD11b^+ bone marrow-derived macrophages (BMDMs) into F80^+CD206^+ cells, and B: CD4^+ T cells into Gata3^+ cells. C-D: FACS results for different populations of T cells and CD11b^+MHCII^+ monocytes/macrophages/microglia of immune cells isolated from C: spleen and D: central nervous system (CNS) of EAE mice treated with PBS, IL-4 or Link4.
Subsequently, the effects of IL-4 and Link4 on immune cells were analysed when applied intranasally, similarly as in FIG. 3B. Since nasally applied treatments can enter the periphery (lungs, blood stream) it was of utmost importance to check whether the substances affected the lymphocyte populations in the spleen. A reduction was found of CD8^+ cytotoxic T-cells for Link4, whereas all CD4^+ T helper cell types were unchanged. The CD11 b+MHCII+ population of monocytes/macrophages was also not changed.
CNS and spleens were removed from EAE mice treated with nasal IL-4, Link4 or PBS at d35 and immune cells were isolated as previously described (M. Paterka, J. O. Voss, J. Werr, E. Reuter, S. Franck, T. Leuenberger, J. Herz, H. Radbruch, T. Bopp, V. Siffrin, and F. Zipp, Dendritic cells tip the balance towards induction of regulatory T cells upon priming in experimental autoimmune encephalomyelitis. J Autoimmun 67, 108-114 (2017)). […]

CD4+ T cells = test: TH2 differentiation of naive T cells; assay type: cell-based, mouse; settings: different concentrations, FIG. 4B
Protocol: as §1
In order to investigate whether Link4 and Link13 are able to modulate immune cells, in vitro assays were performed on bone marrow-derived macrophages (BDMBs) and on naïve T cells.
For the isolation of T lymphocytes 5-8 week old C57BL/6 mice were sacrificed by cervical dislocation and the spleens and lymph nodes (LN) were isolated and rubbed trough a 100 μm cell strainer into a 50 ml tube with washing medium (5% FCS, 1% P/S,1% HEPES in PBS). After washing, the cells were centrifuged for 5 min at 550 g at 4° C. To remove the red blood cells the […] was re-suspended in lysis buffer followed by centrifugation (5 min, 550 g, 4° C.). The cells were resuspended in MACS buffer and magnetic lymphocyte sorting was performed on ice, using the MidiMACS and QuadroMACS Seperators. A CD4 untouched and CD8 touched cell sort was performed a washing step in ml MACS buffer (5 min, 550 g, 4° C.). Cells were incubated with CD4 T cell biotin antibody cocktail (Miltenyi Biotec) in MACS buffer for 5 min at 4° C. Subsequently, anti-biotin microbeads and CD8 microbeads in MACS buffer was added. CD8 microbeads were added to reduce the possible contamination of CD8^+ lymphocytes. After 10 min of incubation at 4° C. the cells were washed again and resuspended in MACS buffer. MACS columns were pre equilibrated and topped with pre-separation filters (30 μm). A maximum of 300×10^6 cells were added to each column followed by 3 consecutive washing steps with MACS buffer. […] The purity of the magnetic cells sorts was assessed by comparing pre- and post-sort samples by flow cytometry. […]

Sequence: RARSEIIGIGSKSIMQMDY (listed as Mus musculus) [Link4]
- toxic effects on hippocampal neurons (cell viability) [1]: no toxic effects
- IL-10+ cells [2]: significant rise
- differentiation of CD4+ T cells into Gata3+ cells (CD4+ T cells): did not take place
